{"source": "paper PMC6106931", "about": "(Alzheimer's Research & Therapy, 2018)", "experiment": "Cognitive evaluations (CANTAB Elect, RBANS, CDR-SB, MMSE), Study ALZ1005", "format": "in vivo, human", "details": "Caucasian early AD", "procedure": "When multiple assessments were performed at the same visit by independent raters, the sequential order of testing was RBANS first followed by CDR, MMSE, and CANTAB Elect, and if raters for RBANS and CDR were the same, then CDR was performed prior to RBANS.\nThe CDR assessed three domains of cognition (memory, orientation, judgment/problem solving) and three domains of function (community affairs, home/hobbies, personal care) using structured interviews of both the patient and a companion/informant by a trained rater and scored using a standard methodology. CDR global score for the six domains range from 0 to 3 with 0 indicating no dementia and 3 indicating severe dementia. It can be summed to obtain CDR Sum of Boxes (CDR-SB) with scores ranging from 0 to 18. CDR and CDR-Japanese version global score has been used in AD trials as a global measure of disease progression.\nRBANS battery includes 12 subsets that measure 5 indices; the Digit Span and Coding subtests measure Attention, the Picture Naming and Semantic Fluency subtests measure Language, the Figure Copy and Line Orientation subtests measure Visuospatial/Construction, List Learning and Store Memory subtests measure Immediate Memory, and List Recall, List Recognition, Store Memory and Figure Recall measure Delayed Memory. RBANS has been used in multinational AD clinical trials.\nThe CANTAB test battery consists of paired associated learning (PAL), reaction time (RTI) and spatial working memory (SWM). Performance in this test battery is associated with pathologic Aβ and tau levels and enables identification of individuals with memory impairment who are likely to develop AD and those with questionable dementia. Scores have a sensitivity of 0.83 and a specificity of 0.82 when differentiating individuals with MCI from healthy older adults. The PAL test assesses visuospatial episodic memory and the outcome measure is the adjusted number of errors committed at the 6-pattern stage. The test-retest reliability for PAL is 0.75 in MCI and 0.85 in AD. The RTI test assesses psychomotor processing speed. […] The test-retest reliability is 0.68 in MCI and 0.72 in AD. The SWM test assesses working memory and executive function. The outcome measure is the number errors made during performing of the task. The test-retest reliability is 0.55 in MCI and 0.68 in AD.\nMMSE rates subjects on orientation, registration, attention, calculation, recall and language. The maximum score is 30, and lower the score the greater the impairment."}
{"smiles": "C[C@@]1(c2cc(NC(=O)c3ccc(C#N)cn3)ccc2F)C=CSC(N)=N1", "note": "[atabecestat]", "values": [{"measurement": "CDR-SB Total Score, change from baseline at day 28, Diff. of LS Means (SE) vs placebo", "setting": "10 mg", "value": "^-0.07 (0.305)"}, {"measurement": "CDR-SB Total Score, change from baseline at day 28, LS Mean", "setting": "10 mg", "value": "^-0.04"}, {"measurement": "CDR-SB Total Score, change from baseline at day 28, Mean (SD)", "setting": "10 mg", "value": "^-0.04 (0.660)"}, {"measurement": "MMSE Total Score, change from baseline at day 28, Diff. of LS Means (SE) vs placebo", "setting": "10 mg", "value": "^-1.33 (0.906)"}, {"measurement": "MMSE Total Score, change from baseline at day 28, LS Mean", "setting": "10 mg", "value": "^-0.76"}, {"measurement": "MMSE Total Score, change from baseline at day 28, Mean (SD)", "setting": "10 mg", "value": "^-0.40 (2.971)"}, {"measurement": "PAL Total Errors 6 Shapes Adjusted, change from baseline at day 28, Diff. of LS Means (SE) vs placebo", "setting": "10 mg", "value": "^-1.14 (2.086)"}, {"measurement": "PAL Total Errors 6 Shapes Adjusted, change from baseline at day 28, LS Mean", "setting": "10 mg", "value": "^0.87"}, {"measurement": "RBANS Total Scale, change from baseline at day 28, Diff. of LS Means (SE) vs placebo", "setting": "10 mg", "value": "^-4.39 (2.762)"}, {"measurement": "RBANS Total Scale, change from baseline at day 28, LS Mean", "setting": "10 mg", "value": "^0.07"}, {"measurement": "RBANS Total Scale, change from baseline at day 28, Mean (SD)", "setting": "10 mg", "value": "^0.33 (4.995)"}, {"measurement": "RTI Simple Reaction Time Mean, change from baseline at day 28, Diff. of LS Means (SE) vs placebo", "setting": "10 mg", "value": "^41.89 (23.130)"}, {"measurement": "RTI Simple Reaction Time Mean, change from baseline at day 28, LS Mean", "setting": "10 mg", "value": "^14.30"}, {"measurement": "SWM Between Errors 4-8 Boxes, change from baseline at day 28, Diff. of LS Means (SE) vs placebo", "setting": "10 mg", "value": "^0.06 (2.631)"}, {"measurement": "SWM Between Errors 4-8 Boxes, change from baseline at day 28, LS Mean", "setting": "10 mg", "value": "^1.48"}, {"measurement": "CDR-SB Total Score, change from baseline at day 28, Diff. of LS Means (SE) vs placebo", "setting": "50 mg", "value": "^0.51 (0.300)"}, {"measurement": "CDR-SB Total Score, change from baseline at day 28, LS Mean", "setting": "50 mg", "value": "^0.54"}, {"measurement": "CDR-SB Total Score, change from baseline at day 28, Mean (SD)", "setting": "50 mg", "value": "^0.54 (1.082)"}, {"measurement": "MMSE Total Score, change from baseline at day 28, Diff. of LS Means (SE) vs placebo", "setting": "50 mg", "value": "^-1.29 (0.880)"}, {"measurement": "MMSE Total Score, change from baseline at day 28, LS Mean", "setting": "50 mg", "value": "^-0.73"}, {"measurement": "MMSE Total Score, change from baseline at day 28, Mean (SD)", "setting": "50 mg", "value": "^-0.75 (3.317)"}, {"measurement": "PAL Total Errors 6 Shapes Adjusted, change from baseline at day 28, Diff. of LS Means (SE) vs placebo", "setting": "50 mg", "value": "^-1.44 (2.037)"}, {"measurement": "PAL Total Errors 6 Shapes Adjusted, change from baseline at day 28, LS Mean", "setting": "50 mg", "value": "^0.57"}, {"measurement": "RBANS Total Scale, change from baseline at day 28, Diff. of LS Means (SE) vs placebo", "setting": "50 mg", "value": "^-2.48 (2.705)"}, {"measurement": "RBANS Total Scale, change from baseline at day 28, LS Mean", "setting": "50 mg", "value": "^1.97"}, {"measurement": "RBANS Total Scale, change from baseline at day 28, Mean (SD)", "setting": "50 mg", "value": "^1.88 (10.392)"}, {"measurement": "RTI Simple Reaction Time Mean, change from baseline at day 28, Diff. of LS Means (SE) vs placebo", "setting": "50 mg", "value": "^33.19 (23.367)"}, {"measurement": "RTI Simple Reaction Time Mean, change from baseline at day 28, LS Mean", "setting": "50 mg", "value": "^5.60"}, {"measurement": "SWM Between Errors 4-8 Boxes, change from baseline at day 28, Diff. of LS Means (SE) vs placebo", "setting": "50 mg", "value": "^-0.48 (2.693)"}, {"measurement": "SWM Between Errors 4-8 Boxes, change from baseline at day 28, LS Mean", "setting": "50 mg", "value": "^0.93"}, {"measurement": "RBANS total scale, MMSE total and CDR Sum of Boxes change from baseline at day 28", "setting": "any treatment group", "value": "no meaningful change"}, {"measurement": "CANTAB (PAL, RTI, SWM) changes from baseline at day 28", "setting": "atabecestat treatment groups", "value": "No meaningful changes"}]}
